Experiments:
[1] = Ratio of drug uptake in brain to plasma in rat at 10 mg/kg, po at 6 hrs; assay type: ADME, organism-based; parameters: dose 10 mg/kg, route oral; conditions: read-out: BPR
[2] = Drug uptake in rat brain at 10 mg/kg, po at 6 hrs; assay type: ADME, organism-based; parameters: dose 10 mg/kg, route oral; conditions: read-out: Drug uptake
[3] = AUC (0 to 6 hrs) in rat at 10 mg/kg po; assay type: ADME, organism-based; parameters: time < 6 hr, dose 10 mg/kg, route oral; conditions: plasma
[4] = Clearance in rat hepatocytes assessed per 10^6 cells; assay type: ADME, cell-based, Hepatocyte; conditions: read-out: CLH
Brain = assay: Free drug concentration in rat brain at 10 mg/kg, po at 6 hrs; assay type: ADME, organism-based; parameters: dose 10 mg/kg, route oral; conditions: in vivo
[5] = Cmax in rat at 10 mg/kg, po at 1 hr; assay type: ADME, organism-based; parameters: dose 10 mg/kg, route oral; conditions: in vivo
[6] = Plasma concentration in rat at 10 mg/kg, po at 6 hrs; assay type: ADME, organism-based; parameters: dose 10 mg/kg, route oral
[7] = Intrinsic clearance in cynomolgus monkey hepatocytes assessed per 10^6 cells; assay type: ADME, cell-based, Macaca fascicularis, Hepatocyte; conditions: read-out: CLH
[8] = Oral bioavailability in rat at 10 mg/kg; assay type: ADME, organism-based; conditions: in vivo
[9] = Intrinsic clearance in human hepatocytes assessed per 10^6 cells; assay type: ADME, cell-based, Hepatocyte; conditions: read-out: CLH
[10] = Intrinsic clearance in rat hepatocytes assessed per 10^6 cells; assay type: ADME, cell-based, Hepatocyte; conditions: read-out: CLH
[11] = Cmax in rat at 10 mg/kg, po; assay type: ADME, organism-based; parameters: dose 10 mg/kg, route oral; conditions: in vivo
[12] = Apparent permeability across human Caco2 cells; assay type: ADME, cell-based; conditions: Caco-2
[13] = AUC (0 to 24 hrs) in rat at 10 mg/kg po; assay type: ADME, organism-based; parameters: time < 24 hr, dose 10 mg/kg, route oral; conditions: plasma

Row | Compound | Kp at 6 h [1] | concentration at 6 h [2] [nM] | AUC(0-t) at 6 h [3] [µM·h] | Drug uptake(free) (Brain) [nM] | other results
1 | Cc1cnc(N2C[C@H]3C(=O)N(C)C(=N)N[C@@]3(c3cc(-c4cccc(C#N)c4)cs3)C2)nc1 | < 0.1 | 232 | 111 | – | –
2 | CN1C(=O)[C@@H]2CN(C(=O)c3ccccc3)C[C@]2(c2cc(-c3cccc(C#N)c3)cs2)N=C1N | – | – | 0.024 | – | –
3 | CN1C(=N)N[C@@]2(c3cc(-c4ccc(F)c(C#N)c4)cs3)CN(C(=O)c3cccc(F)c3)C[C@H]2C1=O | – | – | 0.3 | – | hepatocyte CLint [4]: 46 µL/min/1e6 cells
4 | CC#Cc1cncc(-c2csc([C@]34CN(c5cccc(OC(C)C)c5)C[C@H]3C(=O)N(C)C(N)=N4)c2)c1 | – | – | 3.7 | – | –
5 | CN1C(=O)[C@@H]2CN(c3ncccn3)C[C@]2(c2cc(-c3cccc(C#N)c3)cs2)N=C1N | 1 | 58 | 2 | 1 | Cmax [5]: 1000 nM; concentration at 6 h [6]: 60 nM

Further lines, with some results ahead:

Row | Kp at 6 h [1] | concentration at 6 h [2] [nM] | AUC(0-t) at 6 h [3] [µM·h] | Drug uptake(free) (Brain) [nM] | Compound | other results
6 | – | – | 0.3 | – | CC#Cc1cncc(-c2csc([C@]34CN(C(=O)c5cccc(F)c5)C[C@H]3C(=O)N(C)C(N)=N4)c2)c1 | –
7 | 0.1 | 463 | 31 | 11 | CN1C(=N)N[C@@]2(c3cc(-c4cccc(C#N)c4)cs3)CN(c3ncc(F)cn3)C[C@H]2C1=O | hepatocyte CLint [7]: 5.7 µL/min/1e6 cells; bioavailability [8]: 97%; hepatocyte CLint [9]: 2 µL/min/1e6 cells; hepatocyte CLint [10]: 13.5 µL/min/1e6 cells; Cmax [11]: 6100 nM; Papp [12]: 15.1 ×10⁻⁶ cm/s; AUC(0-t) at 24 h [13]: 31 µM·h
8 | 0.1 | 965 | 90 | 4 | CN1C(=N)N[C@@]2(c3cc(-c4cccc(C#N)c4)cs3)CN(c3ncc(Cl)cn3)C[C@H]2C1=O | –

— ChEMBL document CHEMBL2177036, “Design and validation of bicyclic iminopyrimidinones as beta amyloid cleaving enzyme-1 (BACE1) inhibitors: conformational constraint to favor a bioactive conformation” (J Med Chem, 2012)
